According to ChEMBL document CHEMBL1157598, “Direct determination of the insulin-insulin receptor interface using transferred cross-saturation experiments” (J Med Chem, 2010):

Tests used:
[1] = biological target: Insulin receptor (Homo sapiens) (UniProt P06213); experiment: Displacement of [125I]insulin from insulin receptor chimera fused with Fc-region of IgG at 100 uM by scintillation proximity assay
[2] = biological target: Insulin receptor (Homo sapiens) (UniProt P06213); experiment: Displacement of [125I]insulin from insulin receptor chimera fused with Fc-region of IgG at 300 uM by scintillation proximity assay

Sequence of Insulin receptor (Homo sapiens) (P06213 28-758 limits assumed): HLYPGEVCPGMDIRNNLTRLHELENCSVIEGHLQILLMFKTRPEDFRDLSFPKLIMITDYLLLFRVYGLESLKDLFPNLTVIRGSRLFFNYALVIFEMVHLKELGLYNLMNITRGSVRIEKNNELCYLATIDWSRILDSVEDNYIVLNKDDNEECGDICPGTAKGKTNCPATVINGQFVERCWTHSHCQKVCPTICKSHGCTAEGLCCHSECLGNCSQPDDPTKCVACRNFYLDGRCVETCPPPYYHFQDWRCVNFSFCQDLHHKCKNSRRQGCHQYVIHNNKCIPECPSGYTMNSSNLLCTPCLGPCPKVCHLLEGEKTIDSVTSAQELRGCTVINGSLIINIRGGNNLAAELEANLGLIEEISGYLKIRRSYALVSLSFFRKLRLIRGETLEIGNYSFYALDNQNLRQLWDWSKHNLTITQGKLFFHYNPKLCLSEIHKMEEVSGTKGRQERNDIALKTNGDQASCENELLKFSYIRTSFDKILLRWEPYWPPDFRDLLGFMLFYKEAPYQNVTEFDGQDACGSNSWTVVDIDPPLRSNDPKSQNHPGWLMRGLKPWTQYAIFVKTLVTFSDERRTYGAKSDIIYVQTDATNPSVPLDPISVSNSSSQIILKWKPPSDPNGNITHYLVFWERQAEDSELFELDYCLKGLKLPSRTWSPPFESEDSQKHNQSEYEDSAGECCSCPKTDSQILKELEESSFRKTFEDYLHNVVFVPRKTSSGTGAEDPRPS
Sequence of Insulin receptor (Homo sapiens) (P06213 763-1382 limits assumed): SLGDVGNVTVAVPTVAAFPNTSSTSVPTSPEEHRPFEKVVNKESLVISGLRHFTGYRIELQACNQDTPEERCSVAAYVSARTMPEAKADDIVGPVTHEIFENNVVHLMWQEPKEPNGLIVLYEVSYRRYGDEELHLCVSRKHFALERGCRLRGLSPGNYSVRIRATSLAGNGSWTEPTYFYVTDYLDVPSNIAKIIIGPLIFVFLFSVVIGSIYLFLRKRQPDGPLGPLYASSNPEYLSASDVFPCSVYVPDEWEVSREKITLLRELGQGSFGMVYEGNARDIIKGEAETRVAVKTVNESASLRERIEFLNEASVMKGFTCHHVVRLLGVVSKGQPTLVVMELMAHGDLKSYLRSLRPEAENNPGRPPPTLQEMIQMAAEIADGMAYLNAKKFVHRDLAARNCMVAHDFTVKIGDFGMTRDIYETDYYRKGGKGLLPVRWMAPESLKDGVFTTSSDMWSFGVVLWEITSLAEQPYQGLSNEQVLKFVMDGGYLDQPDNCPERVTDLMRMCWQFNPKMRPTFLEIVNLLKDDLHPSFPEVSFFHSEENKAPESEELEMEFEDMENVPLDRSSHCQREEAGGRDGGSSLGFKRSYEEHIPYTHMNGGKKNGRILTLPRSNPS

Structure (SMILES): O=C(CSc1nnc(Nc2ccccc2F)s1)c1ccc(OC(F)F)cc1
- Activity [1]: 69%
- Activity [2]: 49%
